Biological target: human adenosine A2b receptor (Homo sapiens (Human), UniProt P29275)
Assay: Cellular in vitro reporter gene test for A2b receptor activity (CHO-K1, CRE-luciferase, NECA stimulation)
Format: cell-based
Conditions: recombinant CHO-K1 cell line, CRE-luciferase reporter, antagonism of EC50 concentration of NECA; in some cases means of several determinations, rounded to two significant figures; read-out: A2b receptor IC50
Summary of the method: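 CHO-K1 cells with CRE-driven luciferase; antagonists co-incubated with NECA at its EC50, determined in a pre-experiment on each test day. Luciferase read by luminescence 3 h after NECA addition.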

Sequence of human adenosine A2b receptor (P29275 whole entry): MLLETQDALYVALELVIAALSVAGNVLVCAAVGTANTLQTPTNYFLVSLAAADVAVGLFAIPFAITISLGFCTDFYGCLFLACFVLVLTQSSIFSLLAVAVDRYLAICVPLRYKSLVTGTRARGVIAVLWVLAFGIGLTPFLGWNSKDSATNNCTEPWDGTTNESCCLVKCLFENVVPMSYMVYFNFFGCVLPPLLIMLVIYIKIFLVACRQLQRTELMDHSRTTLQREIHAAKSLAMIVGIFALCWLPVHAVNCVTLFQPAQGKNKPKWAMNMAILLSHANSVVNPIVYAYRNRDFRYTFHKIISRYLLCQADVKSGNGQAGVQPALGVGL

SMILES	IC50 [nM]
COCCn1c(=O)n(C(C)C(F)(F)F)c(=O)c2c(C)c(CN3CCNC(=O)C3=O)sc21 (racemic) [Example 491, 6-[(2,3-Dioxopiperazin-1-yl)methyl]-1-(2-methoxyethyl)-5-methyl-3-(1,1,1-trifluoropropan-2-yl)thieno[2,3-d]pyrimidine-2,4(1H,3H)-dione]	52
COC(C)Cn1c(=O)c2c(C)c(CN3CCNC(=O)C3=O)sc2n(CCC(F)(F)F)c1=O (racemic) [Example 493, 6-[(2,3-Dioxopiperazin-1-yl)methyl]-3-(2-methoxypropyl)-5-methyl-1-(3,3,3-trifluoropropyl)thieno[2,3-d]pyrimidine-2,4(1H,3H)-dione]	11
Cc1c(Cn2cc[nH]c2=O)sc2c1c(=O)n(CC(C)(C)C)c(=O)n2CC1CCCO1 (racemic) [Example 507, 3-(2,2-Dimethylpropyl)-5-methyl-6-[(2-oxo-2,3-dihydro-1H-imidazol-1-yl)methyl]-1-(tetrahydrofuran-2-ylmethyl)thieno[2,3-d]pyrimidine-2,4(1H,3H)-dione]	28
CCn1c(=O)c2c(C)c(Cn3[nH]ccc3=O)sc2n(CC2CCCO2)c1=O (single isomer, unassigned) [Example 130, 3-Ethyl-5-methyl-6-[(5-oxo-2,5-dihydro-1H-pyrazol-1-yl)methyl]-1-(tetrahydrofuran-2-ylmethyl)thieno[2,3-d]pyrimidine-2,4(1H,3H)-dione]	30
CCn1c(=O)c2c(C)c(Cn3[nH]ccc3=O)sc2n(CC2CCCO2)c1=O (single isomer, unassigned) [Example 131, 3-Ethyl-5-methyl-6-[(5-oxo-2,5-dihydro-1H-pyrazol-1-yl)methyl]-1-(tetrahydrofuran-2-ylmethyl)thieno[2,3-d]pyrimidine-2,4(1H,3H)-dione]	180
Cc1c(Cn2[nH]ccc2=O)sc2c1c(=O)n(C(C)C)c(=O)n2CC1CCCO1 (single isomer, unassigned) [Example 135, 3-Isopropyl-5-methyl-6-[(5-oxo-2,5-dihydro-1H-pyrazol-1-yl)methyl]-1-(tetrahydrofuran-2-ylmethyl)thieno[2,3-d]pyrimidine-2,4(1H,3H)-dione]	46
Cc1c(Cn2[nH]ccc2=O)sc2c1c(=O)n(C(C)C)c(=O)n2CC1CCCO1 (single isomer, unassigned) [Example 136, 3-Isopropyl-5-methyl-6-[(5-oxo-2,5-dihydro-1H-pyrazol-1-yl)methyl]-1-(tetrahydrofuran-2-ylmethyl)thieno[2,3-d]pyrimidine-2,4(1H,3H)-dione]	360
CCn1c(=O)c2c(C)c(CN3CCNC3=S)sc2n(CC2CCCCO2)c1=O (single isomer, unassigned) [Example 141, 3-Ethyl-5-methyl-1-(tetrahydro-2H-pyran-2-ylmethyl)-6-[(2-thioxoimidazolidin-1-yl)methyl]thieno[2,3-d]pyrimidine-2,4(1H,3H)-dione]	120
CCn1c(=O)c2c(C)c(CN3CCNC3=S)sc2n(CC2CCCCO2)c1=O (single isomer, unassigned) [Example 142, 3-Ethyl-5-methyl-1-(tetrahydro-2H-pyran-2-ylmethyl)-6-[(2-thioxoimidazolidin-1-yl)methyl]thieno[2,3-d]pyrimidine-2,4(1H,3H)-dione]	13
Cc1c(CN2CCNC2=S)sc2c1c(=O)n(CC(C)C)c(=O)n2CC1CCO1 (single isomer, unassigned) [Example 147, 3-Isobutyl-5-methyl-1-(oxetan-2-ylmethyl)-6-[(2-thioxoimidazolidin-1-yl)methyl]thieno[2,3-d]pyrimidine-2,4(1H,3H)-dione]	22
Cc1c(CN2CCNC2=S)sc2c1c(=O)n(CC(F)(F)F)c(=O)n2CC1CCO1 (single isomer, unassigned) [Example 155, 5-Methyl-1-(oxetan-2-ylmethyl)-6-[(2-thioxoimidazolidin-1-yl)methyl]-3-(2,2,2-trifluoroethyl)thieno[2,3-d]pyrimidine-2,4(1H,3H)-dione]	26
Cc1c(CN2CCNC2=S)sc2c1c(=O)n(CC(F)F)c(=O)n2CC1CCCO1 (single isomer, unassigned) [Example 164, 3-(2,2-Difluoroethyl)-5-methyl-1-(tetrahydrofuran-2-ylmethyl)-6-[(2-thioxoimidazolidin-1-yl)methyl]thieno[2,3-d]pyrimidine-2,4(1H,3H)-dione]	17
CCn1c(=O)c2c(C)c(CN3CCNC3=O)sc2n(CC2CCCCO2)c1=O (single isomer, unassigned) [Example 179, 3-Ethyl-5-methyl-6-[(2-oxoimidazolidin-1-yl)methyl]-1-(tetrahydro-2H-pyran-2-ylmethyl)thieno[2,3-d]pyrimidine-2,4(1H,3H)-dione]	200
CCn1c(=O)c2c(C)c(CN3CCNC3=O)sc2n(CC2CCCCO2)c1=O (single isomer, unassigned) [Example 180, 3-Ethyl-5-methyl-6-[(2-oxoimidazolidin-1-yl)methyl]-1-(tetrahydro-2H-pyran-2-ylmethyl)thieno[2,3-d]pyrimidine-2,4(1H,3H)-dione]	30
Cc1c(CN2CCNC2=O)sc2c1c(=O)n(C(C)C)c(=O)n2CC1CCO1 (single isomer, unassigned) [Example 185, 3-Isopropyl-5-methyl-1-(oxetan-2-ylmethyl)-6-[(2-oxoimidazolidin-1-yl)methyl]thieno[2,3-d]pyrimidine-2,4(1H,3H)-dione]	60
Cc1c(CN2CCNC2=O)sc2c1c(=O)n(C(C)C)c(=O)n2CC1CCCO1 (single isomer, unassigned) [Example 188, 3-Isopropyl-5-methyl-6-[(2-oxoimidazolidin-1-yl)methyl]-1-(tetrahydrofuran-2-ylmethyl)thieno[2,3-d]pyrimidine-2,4(1H,3H)-dione]	40
Cc1c(CN2CCNC2=O)sc2c1c(=O)n(CC(C)C)c(=O)n2CC1CCO1 (single isomer, unassigned) [Example 195, 3-Isobutyl-5-methyl-1-(oxetan-2-ylmethyl)-6-[(2-oxoimidazolidin-1-yl)methyl]thieno[2,3-d]pyrimidine-2,4(1H,3H)-dione]	41
Cc1c(CN2CCNC2=O)sc2c1c(=O)n(CC(C)C)c(=O)n2CC1CCCO1 (single isomer, unassigned) [Example 197, 3-Isobutyl-5-methyl-6-[(2-oxoimidazolidin-1-yl)methyl]-1-(tetrahydrofuran-2-ylmethyl)thieno[2,3-d]pyrimidine-2,4(1H,3H)-dione]	18

Compounds with a lower IC50, results first:

IC50 [nM]	SMILES
7	Cc1c(CN2CCNC2=O)sc2c1c(=O)n(C(C)C)c(=O)n2CC1CCO1 (single isomer, unassigned) [Example 184, 3-Isopropyl-5-methyl-1-(oxetan-2-ylmethyl)-6-[(2-oxoimidazolidin-1-yl)methyl]thieno[2,3-d]pyrimidine-2,4(1H,3H)-dione]
6.5	Cc1c(CN2CCNC2=O)sc2c1c(=O)n(CC(C)C)c(=O)n2CC1CCO1 (single isomer, unassigned) [Example 196, 3-Isobutyl-5-methyl-1-(oxetan-2-ylmethyl)-6-[(2-oxoimidazolidin-1-yl)methyl]thieno[2,3-d]pyrimidine-2,4(1H,3H)-dione]
6.3	Cc1c(CN2CCNC2=O)sc2c1c(=O)n(C(C)C)c(=O)n2CC1CCCO1 (single isomer, unassigned) [Example 187, 3-Isopropyl-5-methyl-6-[(2-oxoimidazolidin-1-yl)methyl]-1-(tetrahydrofuran-2-ylmethyl)thieno[2,3-d]pyrimidine-2,4(1H,3H)-dione]
5.7	Cc1c(CN2CCNC2=S)sc2c1c(=O)n(CC(F)(F)F)c(=O)n2CC1CCO1 (single isomer, unassigned) [Example 156, 5-Methyl-1-(oxetan-2-ylmethyl)-6-[(2-thioxoimidazolidin-1-yl)methyl]-3-(2,2,2-trifluoroethyl)thieno[2,3-d]pyrimidine-2,4(1H,3H)-dione]
5.2	Cc1c(CN2CCNC2=S)sc2c1c(=O)n(CC(F)F)c(=O)n2CC1CCCO1 (single isomer, unassigned) [Example 163, 3-(2,2-Difluoroethyl)-5-methyl-1-(tetrahydrofuran-2-ylmethyl)-6-[(2-thioxoimidazolidin-1-yl)methyl]thieno[2,3-d]pyrimidine-2,4(1H,3H)-dione]
4.8	CCn1c(=O)c2c(C)c(CN3CCNC3=S)sc2n(CC2CCCO2)c1=O (single isomer, unassigned) [Example 140, 3-Ethyl-5-methyl-1-(tetrahydrofuran-2-ylmethyl)-6-[(2-thioxoimidazolidin-1-yl)methyl]thieno[2,3-d]pyrimidine-2,4(1H,3H)-dione]
4.1	Cc1c(CN2CCNC2=S)sc2c1c(=O)n(CC(C)C)c(=O)n2CC1CCO1 (single isomer, unassigned) [Example 148, 3-Isobutyl-5-methyl-1-(oxetan-2-ylmethyl)-6-[(2-thioxoimidazolidin-1-yl)methyl]thieno[2,3-d]pyrimidine-2,4(1H,3H)-dione]
3.1	CCn1c(=O)c2c(C)c(CN3CCNC3=NC(=O)OC)sc2n(CCOC)c1=O (single isomer, unassigned) [Example 118, Methyl [1-{[3-ethyl-1-(2-methoxyethyl)-5-methyl-2,4-dioxo-1,2,3,4-tetrahydrothieno[2,3-d]pyrimidin-6-yl]methyl}imidazolidin-2-ylidene]carbamate]
2.8	CCn1c(=O)c2c(C)c(CN3CCNC3=S)sc2n(CC2CCCO2)c1=O (single isomer, unassigned) [Example 139, 3-Ethyl-5-methyl-1-(tetrahydrofuran-2-ylmethyl)-6-[(2-thioxoimidazolidin-1-yl)methyl]thieno[2,3-d]pyrimidine-2,4(1H,3H)-dione]
2.7	CCn1c(=O)c2c(C)c(CN3CCNC3=NC(=O)OC)sc2n(CCOC)c1=O (single isomer, unassigned) [Example 119, Methyl [1-{[3-ethyl-1-(2-methoxyethyl)-5-methyl-2,4-dioxo-1,2,3,4-tetrahydrothieno[2,3-d]pyrimidin-6-yl]methyl}imidazolidin-2-ylidene]carbamate]

From patent publication US10428083B2, “Heterocyclylmethyl-thienouracile as antagonists of the adenosine-A2B-receptor” (BAYER PHARMA AKTIENGESELLSCHAFT, priority 2015, dated 2019)
